{
  "source": "patent US20100130598A1",
  "about": "“METHODS FOR INDUCING PROGRAMMED CELL DEATH” (Novogen Research Pty Ltd., priority 2008, published 2010)",
  "molecules": {"B1": {"name": "TRAIL: TRAIL (Alexis), 50 ng/mL, positive caspase-dependent control (protein, UniProt P50591 1-281, looked up)", "Tumor necrosis factor ligand …": "MAMMEVQGGPSLGQTCVLIVIFTVLLQSLCVAVTYVYFTNELKQMQDKYSKSGIACFLKEDDSYWDPNDEESMNSPCWQVKWQLRQLVRKMILRTSEETISTVQEKQQNISPLVRERGPQRVAAHITGTRGRSNTLSSPNSKNEKALGRKINSWESSRSGHSFLSNLHLRNGELVIHEKGFYYIYSQTYFRFQEEIKENTKNDKQMVQYIYKYTSYPDPILLMKSARNSCWSKDAEYGLYSIYQGGIFELKENDRIFVSVTNEHLIDMDHEASFFGAFLVG"}},
  "key": {"caspases-3/7, -8, and -9": {"test_system": "caspases-3/7, -8, and -9", "experiment": "Caspase-3/7, -8, and -9 activity assay (Caspase-Glo) on cell lysates", "type": "cell-based, human", "settings": "EOC cells, 24 h; increasing concentrations of Compound 1 or 2 μM Paclitaxel", "excerpt": "Protein preparation and cellular fractionation. After drug treatment, protein was extracted and measured as previously described (Alvero et al, 2006). For separation of the cytoplasmic and mitochondrial fractions, cell pellets were processed using the ApoAlert™ Cell Fractionation Kit (BD Biosciences, San Jose, Calif.) according to the manufacturer's instructions. For separation of the cytoplasmic and nuclear fractions, pellets were processed using NE-PER Nuclear and Cytoplasmic Extraction (Pierce Biotechnology, Inc., Rockford, Ill.). Caspase-3/7, -8, and -9 activity assay. Ten μg of protein in a 50 μl total volume was mixed with 50 μl of equilibrated Caspase-Glo^10 3/7, 8, or 9 reagents (Promega). After incubating at room temperature for 1 h, luminescence was measured using TD 20/20 Luminometer (Turner Designs, Sunnyvale, Calif.). Blank values were subtracted and fold-increase in activity was determined in relation to the control non-treatment."}, "EOC tumors": {"test_system": "EOC tumors", "experiment": "Mouse EOC xenograft study", "type": "in vivo", "settings": "3 weeks; for T/C values (maximal tumor inhibition, treated/control): intra-peritoneal, Compound 1 100 mg/kg every day, Carboplatin 40 mg/kg q×7d, Paclitaxel 10 mg/kg q×3d", "protocol": "Mouse xenograft studies. The in vivo study as approved by the Yale University Institutional Animal Care & Use Committee. Cells (1×10^6 cells) were resuspended in 200 μ1 total volume of 50% RPMI and 50% BD Matrigel Matrix (BD Biosciences, Bedford, Mass.) and injected subcutaneously into the right flank of NCR nude mice. Intra-peritoneal therapy commenced eight days post-inoculation as follows: Paclitaxel 10 mg/kg q×3d, Carboplatin 40 mg/kg q×7d, and Compound 1 in 20% HPBCD, 100 mg/kg every day. Control groups received 20% HPBCD in PBS. Mice were treated and observed for 3 weeks. Tumor size was determined by caliper measurements and anti-tumor activity was analyzed with respect to maximal tumor inhibition (treated/control, T/C) as described previously (Kamsteeg et al, 2003)."}, "MIAPaCa-2": {"test_system": "MIAPaCa-2", "experiment": "MIAPaCa-2 pancreatic cancer xenograft", "type": "in vivo, Balb/c nude mice", "settings": "MIAPaCa-2 model; Compound 10 100 mg/kg oral qd×12, gemcitabine 20 mg/kg q3d×4, alone or combined", "protocol": "For xenograft studies, five week old male Balb/c nude mice were maintained on an isoflavone-free diet to remove background isoflavone levels contributed by standard feed. On the day of inoculation a suspension of MIAPaCa2 or HPAC cells was prepared in DMEM (-FBS), chilled on ice and then an equal volume of matrigel (BD) was added. Mice were inoculated subcutaneously with 3×10^6 MIAPaCa2 or HPAC cells bilaterally (midway between the axillary and inguinal region) along the dorsal surface, ensuring that cells to be injected were growing at mid-end log phase. Tumor growth was monitored over 10-15 days. Compound 10 was given orally by gavage in 1% carboxy methyl cellulose (CMC) as a vehicle. Gemcitabine was injected intraperiponeally in PBS. In combination groups animals were first dosed with Compound 10 and then dosed with gemcitabine using the respective administration schedule, dosage and route of delivery stated."}, "MIAPaCa-2 cells": {"test_system": "MIAPaCa-2 cells", "experiment": "Apoptosis/necrosis by FACS (Annexin-V-FITC/PI), MIAPaCa-2", "type": "cell-based, human", "settings": "MIAPaCa-2, 10 μM zVAD-fmk 1 h pre-treatment; 10 μM Compound 10 or 50 ng/mL TRAIL", "protocol": "Cells. Human pancreatic cell lines HPAC, MIAPaCa-2 and PANC-1 were obtained from the ATCC. (Manassas, Va.). The cells were maintained in DMEM media with Gln and high glucose (Mediatech, Manassas, Va.) with 10% fetal bovine serum (FBS, HyClone, Logan, Utah) and pencillin/streptomycin.\nFACS Analysis. Apoptosis was measured by FACS analysis using Annexin-V-FITC and propidium iodide (PI) (Biovision, Mountain View, Calif.) as probes (Ahn et al., 2003). Mitochondrial membrane potential was measured by FACS analysis using JC-1 (Biovision) as a probe (Ahn et al., 2003). Cell cycle was analyzed on ethanol-fixed, RNaseA-treated cells staining with PI. In each spectrum, 10,000 gated events were recorded and analyzed with a FACSCalibur (BD Biosciences. San Jose, Calif.). All experiments were done in triplicate, error bars represent one standard deviation. Caspase inhibitor I (zVAD-fmk) was obtained from Calbiochem."}},
  "data": [
    {"molecule": "CC(=O)O[C@H]1C(=O)[C@@]2(C)[C@H]([C@H](OC(=O)c3ccccc3)[C@]3(O)C[C@H](OC(=O)[C@H](O)[C@@H](NC(=O)c4ccccc4)c4ccccc4)C(C)=C1C3(C)C)[C@]1(OC(C)=O)CO[C@@H]1C[C@@H]2O", "note": "[Paclitaxel, reference compound]", "values": [
      {"measurement": "caspase-3/7, -8, and -9 activities", "setting": "caspases-3/7, -8, and -9", "result": "increase"},
      {"measurement": "T/C values (maximal tumor inhibition, treated/control)", "setting": "EOC tumors", "result": 58, "unit": "%"}
    ]},
    {"molecule": "N.N.O=C([O-])C1(C(=O)[O-])CCC1.[Pt+2]", "note": "[carboplatin, reference compound]", "values": [
      {"measurement": "T/C values (maximal tumor inhibition, treated/control)", "setting": "EOC tumors", "result": 58, "unit": "%"},
      {"measurement": "toxic side effects", "setting": "EOC tumors; xenograft mice", "result": "severe weight loss and cachexia"}
    ]},
    {"molecule": "Nc1ccn([C@@H]2O[C@H](CO)[C@@H](O)C2(F)F)c(=O)n1", "note": "[gemcitabine, reference compound]", "values": [
      {"measurement": "% T/C (mean terminal tumor burden)", "setting": "MIAPaCa-2", "result": 79, "unit": "%"}
    ]},
    {"molecule": "B1", "values": [
      {"measurement": "effect of zVAD-fmk pre-treatment on induced apoptosis", "setting": "MIAPaCa-2 cells", "result": "inhibition"}
    ]}
  ]
}
